Columns and labels:
Format in all cases: in vivo
[1] = test system: Echinochloa crus-galli (ECHCG); experiment: Post-emergence herbicidal glasshouse test; details: for % phytotoxicity ECHCG: comparative post-emergence test; for percentage damage caused to the plant, five-point scale, ECHCG: post-emergence, 250 g/ha, 13 days after application
Procedure: (§1) Seeds of a variety of test species are shown in standard soil in pots Amaranthus retoflexus (AMARE), Ipomoea hederacea (IPOHE), Solanum nigrum (SOLNI), Lolium perenne (LOLPE). Echinochloa crus-galli (ECHCG), Setaria faberi (SETFA)). After cultivation for one day (pre-emergence) or after 8 days cultivation (post-emergence) under controlled conditions in a glasshouse (at 24/16° C., day/night; 14 hours light; 65% humidity), the plants are sprayed with an aqueous spray solution derived from the formulation of the technical active ingredient in acetone/water (50:50) solution containing 0.5% Tween 20 (polyoxyethylene sorbitan monolaurate, CAS RN 9005-64-5). Compounds are applied at 250 g/ha unless otherwise stated. The test plants are then grown in a glasshouse under controlled conditions in a glasshouse (at 24/16° C., day/night; 14 hours light; 65% humidity) and watered twice daily. After 13 days for pre and post-emergence, the test is evaluated for the percentage damage caused to the plant. The biological activities are shown in the following table on a five-point scale (5=81-100%; 4=61-80%; 3=41-60%; 2=21-40%; 1=0-20%).
(§2) Using the experimental conditions outlined above, a further test is conducted to compare the herbicidal properties of the difluro containing compound (1.014) with a representative compound (C1) referred to in GB901553. The compounds are applied at 1000 g/ha and 500 g/ha. The test is evaluated for the percentage damage caused to the plant (% phytotoxicity).

[2] = test system: Ipomoea hederacea (IPOHE); experiment: Post-emergence herbicidal glasshouse test; details: for % phytotoxicity IPOHE: comparative post-emergence test; for percentage damage caused to the plant, five-point scale, IPOHE: post-emergence, 250 g/ha, 13 days after application
Procedure: as §1, §2

[3] = test system: Amaranthus retoflexus (AMARE); experiment: Post-emergence herbicidal glasshouse test; details: for % phytotoxicity AMARE: comparative post-emergence test; for percentage damage caused to the plant, five-point scale, AMARE: post-emergence, 250 g/ha, 13 days after application
Procedure: as §1, §2

Solanum nigrum (SOLNI) [4] = experiment: Post-emergence herbicidal glasshouse test; details: for % phytotoxicity SOLNI: comparative post-emergence test; for percentage damage caused to the plant, five-point scale, SOLNI: post-emergence, 250 g/ha, 13 days after application
Procedure: as §1, §2

Lolium perenne (LOLPE) [5] = experiment: Post-emergence herbicidal glasshouse test; details: for % phytotoxicity LOLPE: comparative post-emergence test; for percentage damage caused to the plant, five-point scale, LOLPE: post-emergence, 250 g/ha, 13 days after application
Procedure: as §1, §2

Setaria faberi (SETFA) [6] = experiment: Post-emergence herbicidal glasshouse test; details: for % phytotoxicity SETFA: comparative post-emergence test; for percentage damage caused to the plant, five-point scale, SETFA: post-emergence, 250 g/ha, 13 days after application
Procedure: as §1, §2

[7] = test system: Echinochloa crus-galli (ECHCG); experiment: Pre-emergence herbicidal glasshouse test; details: for % phytotoxicity ECHCG: comparative pre-emergence test; for percentage damage caused to the plant, five-point scale, ECHCG: pre-emergence, 250 g/ha, 13 days after application
Procedure: as §1, §2

[8] = test system: Ipomoea hederacea (IPOHE); experiment: Pre-emergence herbicidal glasshouse test; details: for % phytotoxicity IPOHE: comparative pre-emergence test; for percentage damage caused to the plant, five-point scale, IPOHE: pre-emergence, 250 g/ha, 13 days after application
Procedure: as §1, §2

[9] = test system: Amaranthus retoflexus (AMARE); experiment: Pre-emergence herbicidal glasshouse test; details: for % phytotoxicity AMARE: comparative pre-emergence test; for percentage damage caused to the plant, five-point scale, AMARE: pre-emergence, 250 g/ha, 13 days after application
Procedure: as §1, §2

Solanum nigrum (SOLNI) [10] = experiment: Pre-emergence herbicidal glasshouse test; details: for % phytotoxicity SOLNI: comparative pre-emergence test; for percentage damage caused to the plant, five-point scale, SOLNI: pre-emergence, 250 g/ha, 13 days after application
Procedure: as §1, §2

Lolium perenne (LOLPE) [11] = experiment: Pre-emergence herbicidal glasshouse test; details: for % phytotoxicity LOLPE: comparative pre-emergence test; for percentage damage caused to the plant, five-point scale, LOLPE: pre-emergence, 250 g/ha, 13 days after application
Procedure: as §1, §2

Setaria faberi (SETFA) [12] = experiment: Pre-emergence herbicidal glasshouse test; details: for % phytotoxicity SETFA: comparative pre-emergence test; for percentage damage caused to the plant, five-point scale, SETFA: pre-emergence, 250 g/ha, 13 days after application
Procedure: as §1, §2

SMILES	% phytotoxicity ECHCG ([1]; 500 g/ha) [%]	% phytotoxicity ECHCG ([1]; 1000 g/ha) [%]	% phytotoxicity IPOHE ([2]; 500 g/ha) [%]	% phytotoxicity IPOHE ([2]; 1000 g/ha) [%]	% phytotoxicity AMARE ([3]; 500 g/ha) [%]	% phytotoxicity AMARE ([3]; 1000 g/ha) [%]	% phytotoxicity SOLNI (Solanum nigrum (SOLNI) [4]; 500 g/ha) [%]	% phytotoxicity SOLNI (Solanum nigrum (SOLNI) [4]; 1000 g/ha) [%]	percentage damage caused to the plant, five-point scale, ECHCG [1]	percentage damage caused to the plant, five-point scale, IPOHE [2]	percentage damage caused to the plant, five-point scale, AMARE [3]	percentage damage caused to the plant, five-point scale, SOLNI (Solanum nigrum (SOLNI) [4])	percentage damage caused to the plant, five-point scale, LOLPE (Lolium perenne (LOLPE) [5])	percentage damage caused to the plant, five-point scale, SETFA (Setaria faberi (SETFA) [6])	percentage damage caused to the plant, five-point scale, ECHCG [7]	percentage damage caused to the plant, five-point scale, IPOHE [8]	percentage damage caused to the plant, five-point scale, AMARE [9]	percentage damage caused to the plant, five-point scale, SOLNI (Solanum nigrum (SOLNI) [10])	percentage damage caused to the plant, five-point scale, LOLPE (Lolium perenne (LOLPE) [11])	percentage damage caused to the plant, five-point scale, SETFA (Setaria faberi (SETFA) [12])	other results
O=C(O)C(Cl)(Cl)c1cccc(Cl)c1Cl [Compound C1, reference compound]	0	10	70	80	80	80	60	70	–	–	–	–	–	–	–	–	–	–	–	–	% phytotoxicity LOLPE (Lolium perenne (LOLPE) [5]; 500 g/ha): 0%; % phytotoxicity LOLPE (Lolium perenne (LOLPE) [5]; 1000 g/ha): 20%; % phytotoxicity SETFA (Setaria faberi (SETFA) [6]; 500 g/ha): 0%; % phytotoxicity SETFA (Setaria faberi (SETFA) [6]; 1000 g/ha): 10%; % phytotoxicity ECHCG ([7]; 500 g/ha): 0%; % phytotoxicity ECHCG ([7]; 1000 g/ha): 0%; % phytotoxicity IPOHE ([8]; 500 g/ha): 30%; % phytotoxicity IPOHE ([8]; 1000 g/ha): 60%; % phytotoxicity AMARE ([9]; 500 g/ha): 80%; % phytotoxicity AMARE ([9]; 1000 g/ha): 80%; % phytotoxicity SOLNI (Solanum nigrum (SOLNI) [10]; 500 g/ha): 60%; % phytotoxicity SOLNI (Solanum nigrum (SOLNI) [10]; 1000 g/ha): 70%; % phytotoxicity LOLPE (Lolium perenne (LOLPE) [11]; 500 g/ha): 0%; % phytotoxicity LOLPE (Lolium perenne (LOLPE) [11]; 1000 g/ha): 0%; % phytotoxicity SETFA (Setaria faberi (SETFA) [12]; 500 g/ha): 0%; % phytotoxicity SETFA (Setaria faberi (SETFA) [12]; 1000 g/ha): 0%
O=C(O)C(F)(F)c1cccc(F)c1Cl [Compound 1.036]	–	–	–	–	–	–	–	–	1 (1=0-20%)	4 (4=61-80%)	4 (4=61-80%)	4 (4=61-80%)	1 (1=0-20%)	1 (1=0-20%)	1 (1=0-20%)	4 (4=61-80%)	4 (4=61-80%)	4 (4=61-80%)	1 (1=0-20%)	1 (1=0-20%)	–
O=C(O)C(F)(F)c1ccc(Cl)cc1Cl [Compound 1.004]	–	–	–	–	–	–	–	–	1 (1=0-20%)	4 (4=61-80%)	4 (4=61-80%)	4 (4=61-80%)	1 (1=0-20%)	1 (1=0-20%)	1 (1=0-20%)	4 (4=61-80%)	4 (4=61-80%)	3 (3=41-60%)	1 (1=0-20%)	1 (1=0-20%)	–
COC(=O)C(F)(F)c1ccc(Cl)cc1Cl [Compound 1.003]	–	–	–	–	–	–	–	–	1 (1=0-20%)	3 (3=41-60%)	3 (3=41-60%)	3 (3=41-60%)	1 (1=0-20%)	1 (1=0-20%)	1 (1=0-20%)	3 (3=41-60%)	4 (4=61-80%)	2 (2=21-40%)	1 (1=0-20%)	1 (1=0-20%)	–
O=C(O)C(F)(F)c1cccc(Cl)c1Cl [Compound 1.014]	80	90	90	90	100	100	100	100	5 (5=81-100%)	5 (5=81-100%)	5 (5=81-100%)	5 (5=81-100%)	1 (1=0-20%)	5 (5=81-100%)	5 (5=81-100%)	5 (5=81-100%)	5 (5=81-100%)	5 (5=81-100%)	1 (1=0-20%)	4 (4=61-80%)	% phytotoxicity LOLPE (Lolium perenne (LOLPE) [5]; 500 g/ha): 10%; % phytotoxicity LOLPE (Lolium perenne (LOLPE) [5]; 1000 g/ha): 20%; % phytotoxicity SETFA (Setaria faberi (SETFA) [6]; 500 g/ha): 90%; % phytotoxicity SETFA (Setaria faberi (SETFA) [6]; 1000 g/ha): 90%; % phytotoxicity ECHCG ([7]; 500 g/ha): 30%; % phytotoxicity ECHCG ([7]; 1000 g/ha): 80%; % phytotoxicity IPOHE ([8]; 500 g/ha): 80%; % phytotoxicity IPOHE ([8]; 1000 g/ha): 90%; % phytotoxicity AMARE ([9]; 500 g/ha): 90%; % phytotoxicity AMARE ([9]; 1000 g/ha): 100%; % phytotoxicity SOLNI (Solanum nigrum (SOLNI) [10]; 500 g/ha): 100%; % phytotoxicity SOLNI (Solanum nigrum (SOLNI) [10]; 1000 g/ha): 100%; % phytotoxicity LOLPE (Lolium perenne (LOLPE) [11]; 500 g/ha): 10%; % phytotoxicity LOLPE (Lolium perenne (LOLPE) [11]; 1000 g/ha): 40%; % phytotoxicity SETFA (Setaria faberi (SETFA) [12]; 500 g/ha): 90%; % phytotoxicity SETFA (Setaria faberi (SETFA) [12]; 1000 g/ha): 90%

From patent US12319648B2, “Fluorinated phenylacetic acid derivatives in a weed control method” (SYNGENTA CROP PROTECTION AG, priority 2019, dated 2025)
